Test results published in US10668057B2, “Compositions and methods for inducing conformational changes in cereblon and other E3 ubiquitin ligases” (Celgene Corporation, priority 2014, dated 2020).
One block for each molecule: values may come before it.

Legend:
DF15R cells = assay: Cell proliferation assay of DF15R cells re-expressing CRBN wild type or mutants; assay type: cell-based
CRBN^E377V = molecular target: T1, CRBN^E377V (Homo sapiens, UniProt Q96SW2, E377V); assay: Thalidomide analog-coupled affinity bead assay, DF15R CRBN^E377V cell extracts; assay type: binding; conditions: preincubation of cell extracts with free compound, comparable to CRBN^WT
T1 construct: Cell lines re-expressing RFP or full length CRBN wild type or E377V mutant; expressed in transfected cells; host or cells: DF15R (CRBN-deficient myeloma line), lentiviral system; cell extract
Description: (§1) DF15, DF15R or DF15R derived cell line extracts were prepared in NP 40 lysis buffer (0.5% NP40, 50 mM Tris HCl (pH 8.0), 150 mM NaCl, 0.5 mM DTT, 0.25 mM PMSF, 1× protease inhibitor mix (Roche, Indianapolis, Ind.) at approximately 2×10^8 cells per ml […]. Cell debris and nucleic acids were cleared by centrifugation (14,000 rpm 30 min 4° C.). In competition experiments 0.5 ml (3-5 mg protein) aliquots of the resulting extracts were preincubated (15 min room temp.) with 5 μl DMSO (control) or 5 μl compound at varying concentrations in DMSO. Thalidomide analog-coupled beads (0.3-0.5 mg) were added to protein extracts and samples rotated (2 hours, 4° C.). Beads were washed three times with 0.5 ml NP40 buffer, and then bound proteins were eluted with SDS-PAGE sample buffer.
To probe the function of the residues proximal to the bound IMiD® drug, we performed mutagenesis of residue E377 to valine in the human CRBN sequence and re-expressed the protein using a lentiviral system in DF15R cells. Cell extracts from this line were used to assay the ability of CRBN^E377V to bind IMiD® compound.

H929 and U266 = assay: Cell viability in CRBN inducible shRNA knockdown myeloma cells; assay type: cell-based; conditions: CRBN inducible knockdown vs shControl, 5 day treatment
Description: FIG. 25A: An inducible shRNA construct targeting CRBN or a control construct was transduced into the multiple myeloma cell lines H929 and U266. Inducible shRNA expression (marked by turbo-RFP) was monitored by flow cytometry over a period of 1 to 9 days as indicated in the histograms (Top row). […] FIG. 25B: CRBN protein expression was quantified by Western blotting. […] Data are shown as mean of three independent experiments±s.d.
Inducible shRNA constructs targeting CRBN or a control construct (Open Biosystems) were transduced using spinoculation methodology into the multiple myeloma cell lines H929 and U266. Stably transduced cells were selected with puromycin. Inducible shRNA expression (marked by RFP) was monitored by fluorescence microscopy and flow cytometry using 1 μg/mL doxycycline. CRBN protein expression was quantified by Western blotting. Cell proliferation and viability were assessed by 7AAD/flow cytometry assays. 6.9.2.5 Immunoblot and Immunohistochemistry

IL-2 = IL-2 induction in mouse splenocytes; assay type: cell-based
Description: FIGS. 26A-26B show IL2 costimulation by pomalidomide. FIG. 26A: Co-stimulation of IL2 release by pomalidomide in human PBMCs treated with anti-CD3. Data are shown as mean±s.d. FIG. 26B: Costimulation of IL2 release by anti-CD28 (squares) or pomalidomide (circles) in mouse PBMC treated with anti-CD3. Data are shown as mean±s.d.

CRBN^WT = molecular target: T2, CRBN^WT (Homo sapiens, UniProt Q96SW2); assay: Thalidomide analog-coupled affinity bead assay, DF15R CRBN^WT cell extracts; assay type: binding; conditions: preincubation of cell extracts with free compound
T2 construct: re-express full length wild type (CRBN^WT), W386A (CRBN^W386A) or W400A (CRBN^W400A) mutant versions of CRBN; FLAG; expressed in transfected cells; host or cells: DF15R (CRBN-deficient myeloma line), lentiviral transduction, puromycin selection; cell extract
Description: as §1

CRBN [1] = molecular target: T3, CRBN (Homo sapiens, UniProt Q96SW2); conditions: in vitro; cited from earlier work
[2] = mice and rats; cited from earlier work
[3] = test system: TMD8 (ABC) or Karpas 422 (GCB) cells; assay: 3H-thymidine incorporation proliferation assay, co-treatment with lenalidomide; assay type: cell-based; conditions: for anti-proliferative effects on co-treatment with lenalidomide: co-treatment with 10 μM lenalidomide
[4] = test system: panel of tumor cell lines; assay: Potency across a panel of tumor cell lines; assay type: cell-based
Description: The potency of CC-885 was assessed across a panel of tumor cell lines, including B-lymphoma, breast, CNS, colon, kidney, leukemia, lung, melanoma, multiple myeloma, ovary and prostate.

H929 = assay: Apoptosis in multiple myeloma cell line H929; assay type: cell-based; conditions: 0.01 nM to 1000 nM, assessed at 24 hrs
Description: The multiple myeloma cell line, H929, was cultured and treated with CC-885 or other CMA analogs at various concentrations from 0.01 nM to 1000 nM. Apoptosis was assessed at 24 hrs. later.

[5] = test system: DF15 (sensitive), DF15R (resistant; CRBNnull) cells; assay: Cell proliferation assay of DF15, DF15R and DF15R-derived cells with CC-885; assay type: cell-based
MDA-MB-231 = assay: Growth inhibition and pro-apoptotic activity in breast cancer cells treated with CRBN siRNA; assay type: cell-based; conditions: CRBN siRNA vs negative control
Description: Breast cancer cells (MDA-MB-231) were treated with CRBN siRNA or a negative control. CC-885 was added at a concentration between 0 to 100 μM, and CRBN levels were assessed at 48 hours post treatment.

CRBN [6] = molecular target: T3, CRBN; assay: Thalidomide analog affinity bead competition, U266 cell extracts; assay type: binding; parameters: extracts prepared from U266 multiple myeloma cells; endogenous in cells; host or cells: U266 multiple myeloma cells (cell extract); conditions: U266 MM cell extracts, competition with thalidomide analog affinity beads
Description: Immunoblot analysis of extracts prepared from U266 multiple myeloma cells and pre-incubated with vehicle DMSO (D), Pomalidomide (Pom) or CC-885 at the indicated concentrations, and bound to thalidomide analog affinity beads, washed and eluted with SDS buffer as previously described (Ito et al, 2010; Lopez-Girona et al, 2012). Samples were subjected to SDS-PAGE and immunoblot analysis using anti-CRBN 65-76 (1:10,000 dilution; Red signal) and anti-DDB1 (Cell Signaling) (1:2,000 dilution; Green signal). A LI-COR Odissey system was used to quantify CRBN band density and relative amounts of CRBN were determined by averaging at least three DMSO controls and expressing CRBN in each competition sample as percent inhibition of CRBN protein relative to the averaged controls as 100% binding. […] Cell proliferation assay of DF15 (sensitive), DF15R (resistant; CRBNnull) cells treated with a dose response of CC-885. Assays were done in triplicate and error bars represent s.d. Data for each cell line was normalized to treatment with vehicle (DMSO). […] Cell proliferation assay of DF15 (sensitive), DF15R (resistant; CRBNnull), DF15R-hCRBNWT (human CRBN), DF15R-RFP cells treated with a dose response of CC-885. […] Assays were done in triplicate and error bars represent s.d. Data for each cell line was normalized to treatment with vehicle (DMSO). […]

competition for CRBN^E377V binding to thalidomide analog-beads (CRBN^E377V): competed
competition for CRBN binding to thalidomide analog-beads (CRBN^WT): competed for binding to the beads
Compound: Nc1cccc2c1C(=O)N(C1CCC(=O)NC1=O)C2=O (stereo not shown) [pomalidomide]
sensitivity to antiproliferative effect (DF15R cells; DF15R re-expressing CRBN^E377V): unable to rescue sensitivity
antiproliferative effect (DF15R cells; DF15R re-expressing CRBN^WT): regained antiproliferative effect
anti-proliferative effects (H929 and U266): reduced anti-proliferative effects
IL-2 inducing effects (IL-2): resistant

competition for CRBN^E377V binding to thalidomide analog-beads (CRBN^E377V): competed
competition for CRBN binding to thalidomide analog-beads (CRBN^WT): competed for binding to the beads
Compound: O=C1CCC(N2C(=O)c3ccccc3C2=O)C(=O)N1 (racemic) [thalidomide]
auto-ubiquitination of CRBN (CRBN [1]): able to inhibit
teratogenic effects [2]: insensitive

Compound: Cc1nc2cccc(N)c2c(=O)n1C1CCC(=O)NC1=O (stereo not shown) [Compound A, 3-(5-amino-2-methyl-4-oxo-4H-quinazolin-3-yl)-piperidine-2,6-dione]
anti-proliferative effects on co-treatment with lenalidomide [3]: blocks anti-proliferative effects

Compound: Nc1cccc2c1CN(C1CCC(=O)NC1=O)C2=O (stereo not shown) [lenalidomide, 3-(4-amino-1-oxo-1,3-dihydro-isoindol-2-yl)-piperidine-2,6-dione]
competition for CRBN ([3]; against Compound A and CC-885): competes
teratogenic effects [2]: insensitive

binding to CRBN protein (CRBN [6]): binds
Compound: Cc1ccc(NC(=O)NCc2ccc3c(c2)CN(C2CCC(=O)NC2=O)C3=O)cc1Cl (stereo not shown) [CC-885, 1-(3-chloro-4-methylphenyl)-3-((2-(2,6-dioxopiperidin-3-yl)-1-oxoisoindolin-5-yl)methyl)urea]
anti-proliferative effects on co-treatment with lenalidomide [3]: blocks anti-proliferative effects
potency across tumor cell line panel ([4]; B-lymphoma, breast, CNS, colon, kidney, leukemia, lung, melanoma, multiple myeloma, ovary and prostate): potent
Therapeutic Index ([4]; toxic effects at low doses): low
early apoptosis (H929): induced early apoptosis
anti-proliferative activity after re-expression of human CRBN ([5]; DF15R-hCRBNWT): recues CC-885 anti-proliferative activity
anti-proliferative activity, dependence on CRBN ([5]; DF15 vs DF15R (CRBNnull)): CRBN is required
growth inhibition, dependence on CRBN (MDA-MB-231): CRBN is required
pro-apoptotic activity, dependence on CRBN (MDA-MB-231): CRBN is required
